In US9410956B1, “Micro-RNA profiling in ovarian cancer” (University of South Florida, priority 2008, dated 2016):

How the values were obtained:
Akt = assay: Immunoblot of phospho-Akt and Akt substrates after knockdown of miR-214 in A2780CP cells; type: cell-based, human; conditions: 72 h
Procedure: (§1) FIG. 2B: An image showing miR-214 reduces PTEN protein but not mRNA levels. HIOSE-80 cells (left panels) were transfected with pcDNA3.1/V5-His-Topo-miR-214, -miR199a* and vector alone and immunoblotted with indicated antibodies (panels 1-4). The expression of miR-214 and miR-199a* was determined by qRT-PCR (panels 5 and 6). PTEN mRNA level was measured by RT-PCR (panel 8). U6 (panel 7) and GAPDH (bottom panel) were used for controls. Middle and right panels show knockdown of miR-214 inducing PTEN expression. A2780CP cells were transfected with antisense 2′-O-methyl oligonucleotide targeting miR-214 at concentration of […] (6 well plate) with Lipofectamine 2000. Anti-miR199a* and scramble 2′-O-methyl oligonucleotide were used as controls. After incubation of 72 h, cells were lysed and immunoblotted with indicated antibodies (middle).
(§2) 2′-O-methyl (2′-O-me) oligoribonucleotides were synthesized by Integrated DNA Technologies. The sequences of 2′-O-methyl-anti-miR-214 and -miR-199a* are: 5′-[…]-3′ (SEQ ID NO: 1) and 5′-[…] UGUA-3′ (SEQ ID NO: 3). 2′-O-me-scrambled miR (5′-[…]-3′) (SEQ ID NO: 15) was used as a control. Cells were grown in 6-well plate (1.7×10^6 cells/well) for 24 h and transfected with 150 pMol of 2′-O-me oligoribonucleotides per well using Lipofectamine 2000. RNA and protein were extracted after 72 h transfection. […]

A2780CP cells [1] = assay: MTT cell viability assay after knockdown of miR-214; type: cell-based, human; conditions: knockdown of miR-214 alone, 150 pMol oligonucleotide per well
Procedure: (§3) FIG. 4B: An image showing an MTT assay. The 2′-O-me-anti-miR-214- or scramble 2′-O-me-transfected A2780CP cells were treated with 20 uM of cisplatin or DMSO vehicle for the indicated times and examined for cell viability.
2′-O-methyl (2′-O-me) oligoribonucleotides were synthesized by Integrated DNA Technologies. The sequences of 2′-O-methyl-anti-miR-214 and -miR-199a* are: 5′-[…]-3′ (SEQ ID NO: 1) and 5′-[…] UGUA-3′ (SEQ ID NO: 3). 2′-O-me-scrambled miR (5′-[…]-3′) (SEQ ID NO: 15) was used as a control. Cells were grown in 6-well plate (1.7×10^6 cells/well) for 24 h and transfected with 150 pMol of 2′-O-me oligoribonucleotides per well using Lipofectamine 2000. RNA and protein were extracted after 72 h transfection.
(§4) A2780CP cells were transfected with 2′-O-methyl-anti-miR-214. The cells transfected with 2′-O-methyl-scramble-miR were used as control. […] Further, the cells were treated with cisplatin or vehicle DMSO.

miR-214 = assay: qRT-PCR of miR-214 level after 2′-O-methyl oligonucleotide transfection; type: cell-based, human; conditions: A2780CP cells, 72 h after transfection
Procedure: FIG. 4A: An image showing A2780CP, a cisplatin-resistant cell line and expressing elevated levels of endogenous miR-214, was transfected with 2′-O-me-anti-miR-214 or scramble 2′-O-me oligonucleotides and assayed with qRT-PCR with primers of miR-214 (top) and U6 (bottom).
Expression of miRNAs was also analyzed by RNase protection or mirVana qRT-PCR miRNA detection assay. For RNase protection assay, enriched small RNA was purified using the miRVana miRNA Isolation Kit (Ambion). The mirVana™ miRNA probe construction kit (Ambion) was used to synthesize the ^32P-labeled miR-214 probe. Probe hybridization and RNase protection were then carried out using the mirVana™ miRNA detection kit (Ambion) according to manufacturer's instructions. After hybridization and RNase treatment, the double-strand products were resolved in a 15% polyacrylamide 8 M urea denaturing gel and visualized using phosphoimaging and autoradiography. mirVana qRT-PCR was performed according to the manufacturer's protocol (Ambion). PCR products were analyzed by electrophoresis on a 7.5% polyacrylamide gel in 0.5×TBE and visualized by ethidium bromide staining.
2′-O-methyl (2′-O-me) oligoribonucleotides were synthesized by Integrated DNA Technologies. The sequences of 2′-O-methyl-anti-miR-214 and -miR-199a* are: 5′-[…]-3′ (SEQ ID NO: 1) and 5′-[…] UGUA-3′ (SEQ ID NO: 3). […]

PTEN [2] = assay: Immunoblot of PTEN protein after knockdown of miR-214 in A2780CP cells; type: cell-based, human; conditions: 72 h
Procedure: as §1, §2

A2780CP cells [3] = assay: Cisplatin-induced apoptosis after knockdown of miR-214 (MTT, subG1 flow cytometry); type: cell-based, human; conditions: 20 uM cisplatin
Procedure: as §3
FIG. 4C: An image showing flow cytometry. Indicated cells were treated with cisplatin or DMSO for 12 h and the subG1 population was identified by flow cytometry.
as §4

PTEN [4] = conditions: ovarian cancer cell lines (Schondorf et al. 2004); cited from earlier work
ovarian cancer = conditions: adjuvant chemotherapy, ovarian cancer patients (Aghajanian 2004); cited from earlier work

Q: With “5′-CUGCCUGUCUGUGCCUGCUGU-3′ (all 2'-O-methyl, backbone not given here) [2′-O-methyl-anti-miR-214, antisense 2′-O-methyl oligoribonucleotide targeting miR-214]” as the compound, how does the “phosphorylation levels of Akt and Akt substrates GSK3β and p70S6K” value (Akt) read?
A: The value was “decreased”.

Q: And the “reduction of cell survival” value (A2780CP cells [1])?
A: The value was “about 20%”.

Q: What about the “level of miR-214” value (miR-214) of the same compound?
A: The value was “significantly decreased”.

Q: And the “protein level of PTEN” value (PTEN [2])?
A: Its value is “increased”.

Q: And the “sensitization to cisplatin-induced apoptosis” value (A2780CP cells [3])?
A: The value was “considerably sensitized”.

Q: With `Nc1ncn([C@H]2C[C@H](O)[C@@H](CO)O2)c(=O)n1` [5-aza-2′ deoxycytidine] as the compound, how does the PTEN protein expression (PTEN [4]) read?
A: The PTEN protein expression was “failed to restore”.

Q: For `N.N.[Cl][Pt][Cl]` [cisplatin], which “clinical response (share of patients)” value (ovarian cancer) is on record?
A: Its value is “approximately 80%”.
